target: Aurora kinase B (Homo sapiens) (UniProt Q96GD4); assay: Disruption of mitotic localization of AURKB in human RPE-MYC H2B-GFP cells assessed as induction of mitotic arrest measured after 24 hrs by fluorescence high content cell imaging analysis; type: cell-based
Sequence (Q96GD4 whole entry): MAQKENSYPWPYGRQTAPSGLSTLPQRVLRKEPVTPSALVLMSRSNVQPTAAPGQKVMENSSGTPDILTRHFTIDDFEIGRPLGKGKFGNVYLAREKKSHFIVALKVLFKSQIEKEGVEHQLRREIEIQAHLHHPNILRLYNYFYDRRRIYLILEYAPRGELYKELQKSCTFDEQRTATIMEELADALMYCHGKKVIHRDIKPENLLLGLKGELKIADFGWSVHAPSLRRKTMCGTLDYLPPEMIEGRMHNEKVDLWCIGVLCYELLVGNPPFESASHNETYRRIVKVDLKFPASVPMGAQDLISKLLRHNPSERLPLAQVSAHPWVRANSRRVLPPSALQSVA

Row | MEC [µM] | Structure (SMILES)
1 | 0.078 | COc1cc(OC)cc(Oc2ccnc3ccccc23)c1
2 | 5 | COc1cccc(Oc2ccnc3ccccc23)c1
3 | 0.078 | COc1cc(Oc2ccnc3ccccc23)cc(-n2cccn2)c1
4 | 0.052 | COc1cc(Oc2ccnc3ccc(F)cc23)cc(-n2cccn2)c1
5 | 20 | COc1cc(Oc2ccnc3cc(Cl)ccc23)cc(-n2cccn2)c1

The next lines start with the molecule.

Row | Structure (SMILES) | MEC [µM]
6 | COC(=O)c1ccc(Oc2ccnc3ccccc23)cc1 | 40
7 | COc1cc(NC(C)=O)cc(Oc2ccnc3ccccc23)c1 | 0.078
8 | COC(=O)c1cc2c(Oc3cc(OC)cc(-n4cccn4)c3)ccnc2cc1OC | 0.039
9 | COc1cc(Oc2ccnc3ccccc23)cc(C(=O)O)c1 | > 40
10 | COc1cc(Oc2ccnc3ccccc23)cc(C(F)(F)F)c1 | 1.25
11 | COC(=O)c1cccc(Oc2ccnc3ccccc23)c1 | 10
12 | Nc1cccc(Oc2ccnc3ccccc23)c1 | 40
13 | O=Cc1cccc(Oc2ccnc3ccccc23)c1 | > 40
14 | CCOC(=O)c1cccc(Oc2ccnc3ccccc23)c1 | 10
15 | CNC(=O)c1cc(OC)cc(Oc2ccnc3ccccc23)c1 | 0.625
16 | COC(=O)c1cc(OC)cc(Oc2ccnc3ccccc23)c1 | 0.02

target: Aurora kinase B (Homo sapiens) (UniProt Q96GD4); assay: Disruption of mitotic localization of AURKB in human RPE-MYC H2B-GFP cells assessed as induction of polyploidy by fluorescence high content cell imaging analysis; type: cell-based

Row | MEC [µM] | Structure (SMILES)
17 | 0.078 | COc1cc(OC)cc(Oc2ccnc3ccccc23)c1
18 | 5 | COc1cccc(Oc2ccnc3ccccc23)c1
19 | 0.078 | COc1cc(Oc2ccnc3ccccc23)cc(-n2cccn2)c1
20 | 0.052 | COc1cc(Oc2ccnc3ccc(F)cc23)cc(-n2cccn2)c1
21 | 20 | COc1cc(Oc2ccnc3cc(Cl)ccc23)cc(-n2cccn2)c1

Continued, molecule first:

Row | Structure (SMILES) | MEC [µM]
22 | COC(=O)c1ccc(Oc2ccnc3ccccc23)cc1 | 40
23 | COc1cc(NC(C)=O)cc(Oc2ccnc3ccccc23)c1 | 0.078
24 | COC(=O)c1cc2c(Oc3cc(OC)cc(-n4cccn4)c3)ccnc2cc1OC | 0.078
25 | COc1cc(Oc2ccnc3ccccc23)cc(C(=O)O)c1 | > 40
26 | COc1cc(Oc2ccnc3ccccc23)cc(C(F)(F)F)c1 | 1.25
27 | COC(=O)c1cccc(Oc2ccnc3ccccc23)c1 | 10
28 | Nc1cccc(Oc2ccnc3ccccc23)c1 | 40
29 | O=Cc1cccc(Oc2ccnc3ccccc23)c1 | > 40
30 | CCOC(=O)c1cccc(Oc2ccnc3ccccc23)c1 | 10
31 | CNC(=O)c1cc(OC)cc(Oc2ccnc3ccccc23)c1 | 1.25
32 | COC(=O)c1cc(OC)cc(Oc2ccnc3ccccc23)c1 | 0.02

— ChEMBL document CHEMBL5241130, “Integrating a phenotypic screening with a structural simplification strategy to identify 4-phenoxy-quinoline derivatives to potently disrupt the mitotic localization of Aurora kinase B” (Bioorg Med Chem, 2023)
